Experimental data reported in paper PMC4372538, “Advantages of the Phosphatidylserine-Recognizing Peptide PSP1 for Molecular Imaging of Tumor Apoptosis Compared with Annexin V” (PLoS ONE, 2015).
“Also recorded” adds a separate entry of the source. Where no end group is shown, it is not given here.

What was measured:
[1] = tested on: apoptotic cells in tumor tissue; test: histological examination of tumor tissues after in vivo homing; set-up: species or system BALB/c nude mice; human H460 tumor; details: Cy7.5-labeled, i.v., tumors removed at 6 hr, camptothecin-treated mice
Procedure: At the 6 hr time point, the animals were euthanized with CO2, and tumor tissues were removed from a subset of animals. The tumor tissues were then fixed by incubating with 4% paraformaldehyde (PFA) overnight, followed by freezing for cryosectioning and immunohistochemical studies under a fluorescence microscope (Zeiss, Oberkochen, Germany). Apoptosis in the tumor tissues was assessed by […] terminal deoxynucleotidyl transferase-mediated dUTP nick-end labelling (TUNEL) staining in accordance with the manufacturer’s instructions (Chemicon Int., Temecula, CA, USA).  Fig 4 In vivo imaging of tumors after apoptosis induction. (A) Cy7.5-labelled PSP1peptide, control peptide, or annexin V was systematically injected into the tail vein of tumor-bearing nude mice treated with camptothecin 24 hrs before injection. The same amount of annexin V was also injected into non-camptothecin-treated tumor-bearing mice as a control. The homing of the peptides was examined after the indicated times using an optical imaging system. The white dotted circles indicate the tumors. (B) Histological examination of tumor tissues after homing of PSP1 and annexin V, performed under a fluorescence microscope. Tumor cell apoptosis was observed by TUNEL staining.

apoptotic H460 cells [2] = test: confocal microscopy of binding to apoptotic H460 cells; type: cell-based, human; details: FITC-labeled, 20 μg/ml, apoptotic H460 (etoposide 50 μM), 4°C, 1 hr
apoptotic H460 cells [3] = test: FACS binding to apoptotic H460 cells; type: cell-based, human; details: FITC-labeled; for binding of PSP1 mutants to apoptotic H460 cells (FACS): 10 μg/ml, vs PSP1, 4°C, n = 3
Procedure: (§1) The human lung cancer cell H460, which was obtained from the American Type Culture Collection (ATCC), was maintained in RPMI-1640 media supplemented with 10% heat-inactivated fetal bovine serum (FBS) and penicillin G/streptomycin at 37°C in a humidified atmosphere of 95% air and 5% CO2.
(§2) To induce apoptosis of lung tumor cells (H460), the cells (5×10^6 cell) were grown overnight and then treated with etoposide (50 μM) (Sigma) in serum-free media for 22 hrs, followed by washing with phosphate-buffered saline (PBS) and binding buffer (10 mM Hepes (pH 7.4), 150 mM NaCl, and 2 mM CaCl2).
(§3) Control peptide (grey); FITC-NSSSVDK.

[4] = phage display; ref [17]; cited from earlier work
PS liposomes = test: SPR binding to PS liposomes
Description: To compare the kinetics of annexin V and PSP1 peptide binding to PS liposomes, SPR spectroscopy was employed (Reichert Inc, NY, USA). PC and PS liposomes (0.8:0.2 PC:PS) were generated as previously described and were homogenously purified using a liposome mini-extruder with a 100 nm membrane filter, based on the manufacturer’s protocol (Avanti Polar Lipids). […] Briefly, phytosphingosine was immobilized by activating the carboxymethyl groups on dextran-coated chips (Reichert Life Sciences) through a reaction with N-hydroxysuccinimide (Sigma-Aldrich), followed by covalent bonding of the ligands to the chip surface via amide linkages and blocking of excess activated carboxyls with ethanolamine. The purified PS or PC liposomes were captured on the phytosphingosine layer at a flow rate of 5 μl/min in liposome immobilization buffer (10 mM Tris-HCl (pH 8.0), 100 mM NaCl, and 2 mM CaCl2). To use the PC-immobilized surface as a control, the injected PS or PC liposome volume was adjusted to an immobilization level of approximately 4000±200 RU. Different concentrations of the PSP1 peptide (0.313 to 5 μM) and annexin V (3.13 to 100 nM) in running buffer (10 mM Tris-HCl (pH 8.0), 100 mM NaCl, 2 mM CaCl2, and 62.5 μg/ml BSA) were allowed to flow over the surfaces bound to the immobilized liposomes for 3 min at a rate of 30 μl/min. The sensor surface was regenerated after each association and dissociation cycle by injecting 10 mM EDTA for 20 s, followed by 50 mM NaOH for 10 s. The interaction of the ligand and the analyte was analyzed using Scrubber 2 Biologic software (http://www.biologic.com.au/). The binding kinetics was assessed by determining the association (kon), dissociation (koff), and equilibrium (KD) constants.
The in vitro binding affinity of PSP1 and annexin V for PS was further examined using SPR analysis (Fig. 2). […] We immobilized PS liposomes on the surface of an SPR chip, applied a series of different concentrations of PSP1 or annexin V, and examined the binding kinetics. PS-specific binding was determined by subtracting binding responses to a PC liposome-coated surface from those obtained using a PS liposome-coated […] surface.
Fig 2 In vitro SPR analysis of PSP1 and annexin V binding to PS liposomes. (A) The indicated concentrations of PSP1 were injected onto the liposome-immobilized surface. Responses (RU) from the PC liposome-coated surface (reference) were subtracted from those from the PS:PC (2:8) liposome surface to monitor PS-specific binding. The equilibration binding constant (KD) and the association (Kon) and dissociation (Koff) rate constants were estimated using the Scrubber program. (B) Plots of the RU values of annexin V at the indicated concentrations.

untreated cancer cells = test: binding to normal (untreated) cancer cells, microscopy; type: cell-based, human; details: 40 μg/ml; data not shown
Procedure: (A) Apoptotic H460 cells in a chamber slide were incubated with 20 μg of PSP1, control peptide, or annexin V for 30 min. The cells were washed and fixed with 4% PFA before staining with DAPI. The confocal images were taken by laser confocal microscopy. (B) Normal H460 cells were subjected to incubation with the same amount of peptide or annexin V.

[5] = tested on: apoptotic tumor cells in H460 tumor-bearing mice; test: in vivo fluorescence imaging of tumors after apoptosis induction; set-up: species or system BALB/c nude mice; human H460 tumor; details: for in vivo tumor homing: i.v., camptothecin-treated H460 tumor-bearing mice, n = 5, imaging 10 min to 12 h, PSP1 10 μg/200 μl, annexin V and control peptide 100 μg/200 μl
Procedure: (§4) Female nude mice (BALB/c nude; body weight, 20±3 g; n = 5) were housed in a specific pathogen-free environment at 22±2°C and 55±5% relative humidity with light. Tumors were generated by subcutaneously injecting H460 cells (5×10^6 cells) into the right shoulder of 6-wk-old female BALB/c nude mice and allowing them to grow for 3 weeks (size of 0.5 to 0.7 cm). For in vivo analysis of tumor targeting, the tumor-bearing mice were either treated or not treated with a single dose of camptothecin (10 mg/kg) 24 hrs prior to intravenous injection of Cy7.5-labeled PSP1, Cy7.5-annexin V or Cy7.5-labeled control peptide into the tail vein under inhalational anesthesia (1% (w/v) isoflurane in 2 L oxygen).
In vivo fluorescence images were taken at different time intervals after peptide injection (10 min, 1 h, 3 h, 6 h, and 12 h) using an eXplore Optix system (ART Advanced Research Technologies Inc., Montreal, Canada), which has excitation/emission wavelengths of 778 nm/805 nm. The obtained images were processed using eXplore Optix OptiView Software and normalized based on the baseline fluorescence, assessed for each mouse prior to peptide injection.
Fig 4 In vivo imaging of tumors after apoptosis induction. (A) Cy7.5-labelled PSP1peptide, control peptide, or annexin V was systematically injected into the tail vein of tumor-bearing nude mice treated with camptothecin 24 hrs before injection. The same amount of annexin V was also injected into non-camptothecin-treated tumor-bearing mice as a control. The homing of the peptides was examined after the indicated times using an optical imaging system. The white dotted circles indicate the tumors. (B) Histological examination of tumor tissues after homing of PSP1 and annexin V, performed under a fluorescence microscope. Tumor cell apoptosis was observed by TUNEL staining.

H460 tumors = test: TUNEL staining of tumors; type: in vivo, BALB/c nude mice; human H460 tumor; details: camptothecin 10 mg/kg single dose
Procedure: as §4
At the 6 hr time point, the animals were euthanized with CO2, and tumor tissues were removed from a subset of animals. The tumor tissues were then fixed by incubating with 4% paraformaldehyde (PFA) overnight, followed by freezing for cryosectioning and immunohistochemical studies under a fluorescence microscope (Zeiss, Oberkochen, Germany). Apoptosis in the tumor tissues was assessed by […] terminal deoxynucleotidyl transferase-mediated dUTP nick-end labelling (TUNEL) staining in accordance with the manufacturer’s instructions (Chemicon Int., Temecula, CA, USA).

normal H460 cells = test: FACS binding to normal H460 cells; type: cell-based, human; details: FITC-labeled, 10 μg/ml; n = 3
Procedure: as §1, §2, §3

H460 cells = test: apoptosis induction in H460 cells, annexin V/PI staining; details: etoposide 50 μM
[6] = PS:PC (2:8) liposomes, PC response subtracted, Tris-HCl pH 8.0, 2 mM CaCl2, Scrubber, value from picture

For “CLSYYPSYC [PSP1, peptide-based phosphatidylserine (PS) indicator PSP1 (…)]”, the “tumor-homing fluorescence signal in tumor cryosections” value [1] was “significantly more prominent than that of annexin V”, the “apoptotic cell-specific signal (confocal microscopy)” value (apoptotic H460 cells [2]) was “apoptotic cell-specific signals were clearly detected; also recorded: targets apoptotic tumor cells more efficiently than annexin V does” and the “binding to apoptotic H460 cells (FACS)” value (apoptotic H460 cells [3]; etoposide 50 μM 22 hrs, 2, 10, 20, 50 μg/ml, binding buffer 10 mM Hepes pH 7.4, 150 mM NaCl ± 2 mM CaCl2, 4°C, 1 hr) was “specifically bound to apoptotic H460 cells in a concentration-dependent manner; also recorded: specifically binds to apoptotic cells through PS exposed on the apoptotic cell surface”. The “interaction with PS on apoptotic cells” value [4] was “specific interaction with PS on apoptotic cells”, the Kd (PS liposomes; PS liposomes, PC liposome response subtracted, Tris-HCl pH 8.0, 2 mM CaCl2, read-out: in vitro binding affinity (equilibrium binding constant, KD)) was 10.7 µM and the “PS binding kinetics in words” value (PS liposomes; PS liposomes, real-time association and dissociation) was “binds much more slowly to PS but, once bound, forms a more stable complex (slow dissociation) compared with annexin V; also recorded: dissociation of PSP1 was slow, even slower than that of annexin V”. For the same molecule, the “association rate constant (Kon)” value (PS liposomes; [6]) was 5.05±3.00×10^1 M^-1S^-1, the “dissociation rate constant (Koff)” value (PS liposomes; [6]) was 2.87±0.95×10^-4 S^-1 and the “binding to untreated cancer cells” value (untreated cancer cells) was “a small degree of binding to untreated cancer cells”. The “duration of in vivo fluorescence signal in tumor region” value ([5]; Cy7.5-labeled, i.v. tail vein, camptothecin 10 mg/kg 24 hrs before, PSP1 10 μg/200 μl (23.16 μM), annexin V 100 μg/200 μl (14.3 μM)) was “more than 12 hrs” and the “in vivo tumor homing” value ([5]; Cy7.5-labeled) was “generated apoptosis/tumor-specific signals after cancer treatment in the animal model; also recorded: appeared higher than those of annexin V for the entire measurement period; also recorded: rapidly observed in the tumor region; also recorded: specifically homed to apoptotic cells in tumors after cancer therapy; also recorded: specifically targeted apoptotic cells in tumors following systemic administration”.
In the case of CC[C@@]1(O)C(=O)OCc2c1cc1n(c2=O)Cc2cc3ccccc3nc2-1 [camptothecin], the “in vivo apoptosis in tumors (TUNEL)” value (H460 tumors) is reported as “increased area of in vivo apoptosis”.
In the case of “CLSFFPSYC [FF-PSP1, mutant PSP1 peptide with phenylalanine instead of tyrosine, …]”, the “binding to normal H460 cells (FACS)” value (normal H460 cells) is reported as “nonspecific binding to the normal cells” and the “binding of PSP1 mutants to apoptotic H460 cells (FACS)” value (apoptotic H460 cells [3]) is reported as “bound to the apoptotic cells as much as PSP1”.
For COc1cc([C@@H]2c3cc4c(cc3[C@@H](O[C@@H]3O[C@@H]5CO[C@@H](C)O[C@H]5[C@H](O)[C@H]3O)[C@H]3COC(=O)[C@H]23)OCO4)cc(OC)c1O [etoposide], the “effect of etoposide on H460 cells in words” value (H460 cells) was “without evidence of significant necrosis; also recorded: caused PS exposure; also recorded: did not significantly change the cell shape or number” and the “H460 cells undergoing apoptosis” value (H460 cells; 22 hrs, serum-free media, annexin V/PI FACS) was “more than 50%”.
For “NSSSVDK (also: FITC label, position not given here) [control peptide, control peptide (NSSSVDK), reference compound]”, the “tumor-homing fluorescence signal in tumor cryosections” value [1] was “No signals were observed in tumor tissues”, the “non-specific fluorescence in surrounding non-tumor tissues” value ([5]; Cy7.5-labeled control peptide 100 μg/200 μl i.v., camptothecin-treated tumor-bearing mice) was “surrounding non-tumor tissues absorbed fluorescence at the early time points, this non-specific signal vanished over time” and the “in vivo tumor homing” value ([5]; Cy7.5-labeled) was “did not show specific tumor-homing signals”.
In the case of “CLSAAPSYC [AA-PSP1, mutant PSP1 peptide with alanine instead of tyrosine, …]”, the “binding of PSP1 mutants to apoptotic H460 cells (FACS)” value (apoptotic H460 cells [3]) is reported as “significantly diminished by replacement of tyrosine by alanine”.
